Laboratory results published in patent publication US20170306385A1, “METHODS FOR DISCOVERING THERAPEUTICS THAT ALTER THE STABILITY OF TARGET PROTEINS” (Dana-Farber Cancer Institute, Inc., priority 2014, published 2017).
Where a SMILES comes first, the peptide text is derived from it. The star is where a group is joined. Cbz = O=C(OCc1ccccc1)*

Assays:
Type in all cases: cell-based
[1] = tested on: fusion protein; assay: Western blot confirmation of fusion protein reduction by HSP90 inhibitors
[2] = tested on: MYC-luciferase fusion protein; assay: Stability time course for 7 MYC-luciferase fusion cell lines, fused (tagged) luciferase; conditions: for increase in MYC-luciferase fusion protein: all 7 cell lines
Protocol: (§1) Seven cell lines were used to measure the half life of the luciferases after blocking all protein synthesis with cyclohexamide. The decay observed for both fused luciferases (MYC-firefly and MYC-nanoluc; FIG. 12B) were compared to the decay observed for the unfused luciferases (renilla and firefly; FIG. 12A) using both the MYC-firefly:renilla and MYC-nanoluc:firefly cell lines 293T, U2OS and the MYC-firefly:renilla cell lines A549, H1299 and LS174T. […] MYC nanoluc half life of approximately 2 hours is longer than MYC-firefly half-life of less than 1 hour and closer to the half-life of untagged firefly. The balanced half-life of MYC-nanoluc and untagged firefly should reduce the number of artefact hits.
(§2) Seven MYC-luciferase reporter cell lines were used to measure changes in MYC-luciferase expression after blocking the proteasome with MG132. The expression of the unfussed renilla and firefly were unchanged for about 6 hours but decreased after 18 hours to a variable extent among cell lines (FIG. 13B).
(§3) Seven MYC-luciferase reporter cell lines were used to measure changes in MYC-luciferase expression after inhibition of ubiquitin dependent proteolysis with the neddylation inhibitor MLN-4924 (FIG. 14A-B).

[3] = tested on: unfused luciferases (renilla and firefly); assay: Stability time course for 7 MYC-luciferase fusion cell lines, unfused (untagged) luciferase
Protocol: as §1, §2, §3

COc1c(C)cnc(Cn2cnc3c(Cl)nc(N)nc32)c1C [BIIB021]
knockdown of protein levels by western blot [1]: confirmed

NS(=O)(=O)OC[C@@H]1C[C@@H](n2ccc3c(N[C@H]4CCc5ccccc54)ncnc32)C[C@@H]1O [MLN-4924]
increase in MYC-luciferase fusion protein ([2]; MLN-4924, typically peaking after 6 hours of treatment): ≥ 50%
expression of unfused renilla and firefly ([3]; MLN-4924, except for the 293T MYC-firefly:renilla cell line): minimally affected

CC1(C)CC(=O)c2c(C(F)(F)F)nn(-c3ccc(C(N)=O)c(N[C@H]4CC[C@H](OC(=O)CN)CC4)c3)c2C1 [PF-04929113]
knockdown of protein levels by western blot [1]: confirmed

CC(C)C[C@@H](C=O)NC(=O)[C@H](CC(C)C)NC(=O)[C@H](CC(C)C)NC(=O)OCc1ccccc1 [MG132] (Cbz-Leu-Leu-Leu-aldehyde)
increase in luciferase signals of MYC-nanoluc ([2]; MYC-nanoluc cell lines, MG132): about 4 fold
increase in MYC-luciferase fusion protein ([2]; proteasome blocked with MG132, different time course): ≥ 50%
expression of unfused renilla and firefly ([3]; MG132, after 18 hours, variable extent among cell lines): decreased
expression of unfused renilla and firefly ([3]; MG132, for about 6 hours): unchanged
